SMILES strings stand for the structures.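 All cell lines were grown in 96-well plates and treated with compound for 48 hours. TGI: total growth inhibition.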

Test systems include OVCAR-8 ovarian; HCC-2998 colon; EKVX NSCLC; K-562 leukemia; MOLT-4 leukemia; MALME-3M melanoma; HCT-116 colon; U251 CNS; MDA-MB-435; 786-0 renal.
Holding throughout (test): NCI anticancer screen, dose series, 48 h

Turning to `CC(C)=CCC[C@@H](C)C1=CC(=O)C(C)=C(O)C1=O`, the TGI is 4.83 µM in the experiment on OVCAR-8 ovarian; 32.9 µM in the experiment on HCC-2998 colon; 13.9 µM in the experiment on EKVX NSCLC; 5.79 µM with K-562 leukemia; > 23.5 µM in the experiment with MOLT-4 leukemia; 23.3 µM with MALME-3M melanoma. Besides, the TGI was 11.8 µM with HCT-116 colon, 38.7 µM in the experiment on U251 CNS, 16.9 µM with MDA-MB-435 and 17.5 µM in the experiment with 786-0 renal.
On to `Nc1ccccc1OCCCOc1ccccc1N`, for which the TGI in the experiment on OVCAR-8 ovarian, with HCC-2998 colon, in the experiment on EKVX NSCLC, in the experiment with K-562 leukemia, in the experiment on MOLT-4 leukemia and with MALME-3M melanoma was > 100 µM in each case. In addition, the TGI with HCT-116 colon, in the experiment with U251 CNS, in the experiment with MDA-MB-435 and in the experiment on 786-0 renal was > 100 µM each time.
For `CC(C)C1=C(Cc2ccccc2)C(=O)O/C1=C\c1ccc(O)c(Cl)c1`, the TGI worked out at 33.1 µM in the experiment with OVCAR-8 ovarian; 28.7 µM in the experiment on HCC-2998 colon; 30.3 µM in the experiment with EKVX NSCLC; 38.8 µM in the experiment with K-562 leukemia; 28.1 µM in the experiment with MOLT-4 leukemia; 30.6 µM with MALME-3M melanoma. Moreover, the TGI worked out at 28.8 µM with HCT-116 colon, 30.3 µM with U251 CNS, 30.7 µM in the experiment with MDA-MB-435 and 30.5 µM in the experiment with 786-0 renal.
With `CCN(CC)C1Oc2cc3c(cc2C(c2cccc(OC)c2O)C1C)OCO3` (stereo not given), the TGI in the experiment with OVCAR-8 ovarian was > 80.8 µM; in the experiment on HCC-2998 colon, > 46.7 µM; in the experiment with EKVX NSCLC, 62.3 µM; in the experiment with K-562 leukemia it was > 100 µM; with MOLT-4 leukemia, 28 µM; in the experiment on MALME-3M melanoma, 21.7 µM. In addition, the TGI in the experiment with HCT-116 colon is 21.1 µM; with U251 CNS, 17.9 µM; with MDA-MB-435, 4.96 µM; with 786-0 renal it was 26.3 µM.
Take `COc1cc2[nH]c(=O)c3cc(C)cc4c(Cl)nc(c1OC)c2c43`: the TGI was > 100 µM with OVCAR-8 ovarian; > 100 µM with HCC-2998 colon; > 100 µM with EKVX NSCLC; > 100 µM with K-562 leukemia; > 100 µM in the experiment with MOLT-4 leukemia; 62 µM with MALME-3M melanoma. For the same compound, the TGI with HCT-116 colon, with U251 CNS, with MDA-MB-435 and with 786-0 renal was > 100 µM throughout.
As for `CS(=O)(=O)OCC1CCCCCCCCCCC12SCCCS2` (stereo not given), the TGI in the experiment with OVCAR-8 ovarian, in the experiment with HCC-2998 colon, in the experiment with EKVX NSCLC, with K-562 leukemia, in the experiment with MOLT-4 leukemia and in the experiment on MALME-3M melanoma was > 100 µM each time. Besides, the TGI with HCT-116 colon, in the experiment with U251 CNS, in the experiment on MDA-MB-435 and in the experiment on 786-0 renal was > 100 µM in each case.
As to `O=C1c2cccnc2-c2nccc3c2c1nc1ccc(Br)cc13`, the TGI with OVCAR-8 ovarian is 0.223 µM; with HCC-2998 colon it was 0.308 µM; in the experiment with EKVX NSCLC, 0.311 µM; with K-562 leukemia it was 0.331 µM; in the experiment on MOLT-4 leukemia, 0.569 µM; in the experiment on MALME-3M melanoma, 0.338 µM. For the same compound, the TGI in the experiment on HCT-116 colon came out at 0.0324 µM; in the experiment with U251 CNS, 0.147 µM; with MDA-MB-435, 0.257 µM; in the experiment on 786-0 renal, 0.0986 µM.
Consider `CO[C@]12CC(=O)C3(C(C[C@H]4CC5CC[C@H]6C[C@@H](OC(C)=O)CC[C@]6(OC(C)=O)C5C[C@@]43C)C1)C1C[C@H]3[C@@H]4CC[C@H]5C[C@@H](OC(C)=O)CC[C@]5(OC(C)=O)[C@H]4CC[C@]3(C)C12` (stereo not given in full), for which the TGI in the experiment on OVCAR-8 ovarian, with HCC-2998 colon, in the experiment with EKVX NSCLC, in the experiment on K-562 leukemia, in the experiment on MOLT-4 leukemia and in the experiment with MALME-3M melanoma was > 100 µM each time. Also, the TGI in the experiment with HCT-116 colon, with U251 CNS, in the experiment on MDA-MB-435 and with 786-0 renal was > 100 µM each time.
Take `CCN(CC)c1ccc2cc(C(N)=O)c(=Nc3ccc(F)cc3)oc2c1`: the TGI in the experiment with OVCAR-8 ovarian, in the experiment on HCC-2998 colon, in the experiment with EKVX NSCLC, in the experiment with K-562 leukemia, with MOLT-4 leukemia and in the experiment on MALME-3M melanoma was > 100 µM each time. Also, the TGI in the experiment with HCT-116 colon, in the experiment with U251 CNS, in the experiment with MDA-MB-435 and with 786-0 renal was > 100 µM each time.
With `CCC(=O)N1C(=O)C(CC)(CC)C(=O)N1C(=O)CC`, the TGI with OVCAR-8 ovarian, with HCC-2998 colon, with EKVX NSCLC, in the experiment with K-562 leukemia, with MOLT-4 leukemia and with MALME-3M melanoma was > 100 µM in each case. The TGI in the experiment on HCT-116 colon, in the experiment with U251 CNS, with MDA-MB-435 and with 786-0 renal was > 100 µM each time.

Source of the values: PubChem BioAssay (NCI).
